This passage reports EC50 and CC50 results from patent publication US10029984B2, “Mono- or di-substituted indole derivatives as dengue viral replication inhibitors” (Janssen Pharmaceuticals, Inc., priority 2015, dated 2018).

A word on the EC50: it is the concentration needed to bring the measured effect to its halfway point. What is called CC50 is the concentration that lowers cell viability or growth by half.

For one series, the system named is DENV-2 strain 16681. The series can be described thus: Tetravalent RT-qPCR assay Protocol A, serotype 2. It counts as cell-based. Conditions: Dengue virus, DENV2, 72 h; RT-qPCR serotype 2 16681, Vero cells, day 3. How it is done:
(§1) The antiviral activity of the compounds of the invention was tested against DENV-1 strain TC974#666 (NCPV; Table 6), DENV-2 strain 16681 (Table 7), DENV-3 strain H87 (NCPV; Table 8) and DENV-4 strains H241 (NCPV; Table 9) in a RT-qPCR assay. Therefore, Vero cells were infected with either DENV-1, or -2, or -3, or -4 in the presence or absence of test compounds. At day 3 post-infection, the cells were lysed and cell lysates were used to prepare cDNA of both a viral target (the 3′UTR of DENV; table 2) and a cellular reference gene (β-actin, table 2). Subsequently, a duplex real time PCR was performed on a Lightcycler480 instrument. The generated Cp value is inversely proportional to the amount of RNA expression of these targets. Inhibition of DENV replication by a test compound result in a shift of Cp's for the 3′UTR gene. On the other hand, if a test compound is toxic to the cells, a similar effect on β-actin expression will be observed. The comparative ΔΔCp method is used to calculate EC50, which is based on the relative gene expression of the target gene (3′UTR) normalized with the cellular housekeeping gene (β-actin).
(§2) The culture medium consisted of minimal essential medium supplemented with 2% of heat-inactivated fetal calf serum, 0.04% gentamycin (50 mg/mL) and 2 mM of L-glutamine. Vero cells, obtained from ECACC, were suspended in culture medium and 75 μL/well was added in 96-well plates (10000 cells/well), which already contain the antiviral compounds. Typically, these plates contain a 4-fold serial dilution of 9 dilution steps of the test compound at 200 times the final concentration in 100% DMSO (500 nL; final concentration range: 25 μM-0.00038 μM). In addition, each plate contains wells which are assigned as virus controls (containing cells and virus in the absence of compound) and cell controls (containing cells in the absence of virus and compound). Once the cells were added in the plates, the plates were incubated in a fully humidified incubator (37° C., 5% CO2) until the next day. Then, DENV-1 strain TC974#666 at an MOI of 0.6, DENV-2 strain 16681 at an MOI of 0.01, DENV-3 strain H87 at an MOI of 1.0 and DENV-4 strains H241 at an MOI of 0.2 and SG/06K2270DK1/2005 at an MOI of 0.16, were added. Therefore, 25 μL of virus suspension was added to all the wells containing test compound and to the wells assigned as virus control. In parallel, 25 μL of culture medium was added to the cell controls. Next, the plates were incubated for 3 days in a fully humidified incubator (37° C., 5% CO2). After 3 days, the supernatant was removed from the wells and the cells were washed twice with ice-cold PBS (˜100 μL). The cell pellets within the 96-well plates were stored at −80° C. for at least 1 day. Next, RNA was extracted using the Cells-to-CT™ lysis kit, according to the manufacture's guideline (Applied Biosystems). The cell lysates can be stored at −80° C. or immediately used in the reverse transcription step.
(§3) In preparation of the reverse transcription step, mix A (table 3A) was prepared and 7.57 μL/well was dispensed in a 96-well plate. After addition of 5 μL of the cell lysates, a five minute denaturation step at 75° C. was performed (table 3B). Afterwards, 7.43 μL of mix B was added (table 3C) and the reverse transcription step was initiated (table 3D) to generate cDNA.
(§4) Finally, a RT-qPCR mix was prepared, mix C (table 4A), dispensed in 96-well LightCycler qPCR plates to which 3 μL of cDNA was added and the qPCR was performed according to the conditions in table 4B on a LightCycler 480. Using the LightCycler software and an in-house LIMS system, dose response curves for each compound were calculated and the half maximal effective concentration (EC50) and the half maximal cytotoxic concentration (CC50) were determined.
In general terms: Quantitative PCR measures a nucleic acid by following its amplification.

A further series has as its system DENV-3 strain H87. Put plainly: Tetravalent RT-qPCR assay Protocol A, serotype 3. The series is classed as cell-based. Conditions: Dengue virus, DENV3, 72 h; RT-qPCR serotype 3 H87, Vero cells, day 3. As to the method: as §1, §2, §3, §4
The next series deals with DENV-2 16681 strain. Put plainly: DENV-2 antiviral assay (eGFP-labeled virus in Vero cells). The series is classed as cell-based, Dengue virus. Conditions: DENV-2 16681 eGFP, MOI 0.5, 3 days. The gist of the method:
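Vero cells were pre-plated with compound overnight, then infected with eGFP-labeled DENV-2 16681 at MOI 0.5 and incubated 3 days at 37 °C. eGFP fluorescence read by automated microscopy; 9-point 4-fold dilutions (25 μM–0.00038 μM final) in quadruplicate, EC50 by linear interpolation versus virus and cell controls.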

A short description of series [1]: in vitro. Conditions: African green monkey, CC50. The series is classed as cell-based. As to the method:
as §1, §2, §4

A short description of series [2]: in vitro. Conditions: African green monkey, CC50. The series is classed as cell-based. The gist of the method:
(§5)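 On the same plates after eGFP read-out, resazurin was added and cells incubated a further 5 h at 37 °C, 5% CO2; resorufin fluorescence read with 530 nm excitation. CC50 is the concentration halving resazurin conversion versus cell control; SI = CC50/EC50.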
This is another data set of the same source.

The test system of another series is DENV-1 strain TC974#666. The series can be described thus: Tetravalent RT-qPCR assay Protocol A, serotype 1. The series is classed as cell-based. Conditions: Dengue virus, DENV1, 72 h; RT-qPCR serotype 1 TC974#666, Vero cells, day 3. As to the method: as §1, §2, §3, §4
The next series deals with DENV-4 strains H241. Put plainly: Tetravalent RT-qPCR assay Protocol A, serotype 4. It counts as cell-based. Conditions: Dengue virus, DENV4, 72 h; RT-qPCR serotype 4 H241, Vero cells, day 3. As to the method: as §1, §2, §3, §4
A further series relates to Vero cells. The series can be described thus: in vitro. It counts as cell-based. Conditions: African green monkey. The gist of the method: as §5

Some results are limits rather than exact numbers.

In the case of `COc1cc(NC(C(=O)c2c[nH]c3c(C)c(F)ccc23)c2ccc(F)cc2OC)cc(S(C)(=O)=O)c1` (single isomer, unassigned) [Enantiomer 2A, 2-(4-fluoro-2-methoxyphenyl)-1-(6-fluoro-7-methyl-1H-indol-3-yl)-2-((3-methoxy-5-(methylsulfonyl)phenyl)amino)ethanone], the EC50 amounted to 0.856 nM in the series with DENV-2 strain 16681; 58.4 nM in the series on DENV-3 strain H87; 0.77 nM in the series with DENV-2 16681 strain (listed as 2A*); 5.85 nM with DENV-1 strain TC974#666; 122 nM with DENV-4 strains H241. Further, the CC50 at 3 days in “in vitro [1]” amounted to 2920 nM. Moreover, the CC50 in the series “in vitro [2]” is 6100 nM.
On to `COc1cc(NC(C(=O)c2c[nH]c3c(C)cc(F)cc23)c2ccc(F)cc2OC)cc(S(C)(=O)=O)c1` (single isomer, unassigned) [Enantiomer 8A, 2-(4-fluoro-2-methoxyphenyl)-1-(5-fluoro-7-methyl-1H-indol-3-yl)-2-((3-methoxy-5-(methylsulfonyl)phenyl)amino)ethanone], for which the EC50 was 1.27 nM with DENV-2 strain 16681; 82.1 nM in the series with DENV-3 strain H87; 1 nM in the series with DENV-2 16681 strain (listed as 8A*); 6.83 nM with DENV-1 strain TC974#666; 248 nM with DENV-4 strains H241. Besides, the CC50 at 3 days in the series “in vitro [1]” was found to be 4400 nM. The molecule also displayed a CC50 with Vero cells of 5100 nM.
With `COc1cc(NC(C(=O)c2c[nH]c3cc(C)c(F)cc23)c2ccc(F)cc2OC)cc(S(C)(=O)=O)c1` (single isomer, unassigned) [Enantiomer 9A, 2-(4-fluoro-2-methoxyphenyl)-1-(5-fluoro-6-methyl-1H-indol-3-yl)-2-((3-methoxy-5-(methylsulfonyl)phenyl)amino)ethanone], the EC50 with DENV-2 strain 16681 was 1.14 nM; in the series with DENV-3 strain H87, 104 nM; in the series on DENV-2 16681 strain (listed as 9A*) it was 1.1 nM; with DENV-1 strain TC974#666, 10 nM; in the series with DENV-4 strains H241 it was 241 nM. The CC50 at 3 days in “in vitro [1]” is 4040 nM. The molecule further came in with a CC50 in the series with Vero cells of 4800 nM.
For `COc1cc(NC(C(=O)c2c[nH]c3cc(OC)c(F)cc23)c2ccc(F)cc2OC)cc(S(C)(=O)=O)c1` (single isomer, unassigned) [Enantiomer 11A, 2-(4-fluoro-2-methoxyphenyl)-1-(5-fluoro-6-methoxy-1H-indol-3-yl)-2-((3-methoxy-5-(methylsulfonyl)phenyl)amino)ethanone], the EC50 stood at 1.09 nM in the series with DENV-2 strain 16681; 93 nM with DENV-3 strain H87; 1.1 nM in the series with DENV-2 16681 strain (listed as 11A*); 10.9 nM in the series with DENV-1 strain TC974#666; 226 nM with DENV-4 strains H241. Further, the midpoint of cytotoxicity in the series “in vitro [1]”, the CC50 at 3 days, lay at 4380 nM. The molecule also displayed a CC50 in the series with Vero cells of 6600 nM.
For the molecule `COc1cc(NC(C(=O)c2c[nH]c3cc(F)c(C)cc23)c2ccc(F)cc2OC)cc(S(C)(=O)=O)c1` (single isomer, unassigned) [Enantiomer 14A, 2-(4-fluoro-2-methoxyphenyl)-1-(6-fluoro-5-methyl-1H-indol-3-yl)-2-((3-methoxy-5-(methylsulfonyl)phenyl)amino)ethanone], the EC50 with DENV-2 strain 16681 worked out at 0.567 nM; in the series on DENV-3 strain H87, 13.1 nM; with DENV-2 16681 strain (listed as 14A*), 0.44 nM; in the series on DENV-1 strain TC974#666, 1.4 nM; in the series with DENV-4 strains H241, 69.4 nM. Besides, the CC50 at 3 days in the series “in vitro [1]” amounted to 2420 nM. Further, in the series with Vero cells, the CC50 turned out to be 3400 nM.
As to `COc1cc(NC(C(=O)c2c[nH]c3ccc(C)cc23)c2ccc(F)cc2OC)cc(S(C)(=O)=O)c1` (single isomer, unassigned) [Enantiomer 15A, 2-(4-fluoro-2-methoxyphenyl)-2-((3-methoxy-5-(methylsulfonyl)phenyl)amino)-1-(5-methyl-1H-indol-3-yl)ethanone], the EC50 was found to be 1.02 nM with DENV-2 strain 16681; 22.1 nM with DENV-3 strain H87; 0.8 nM in the series on DENV-2 16681 strain (listed as 15A*); 3.51 nM in the series with DENV-1 strain TC974#666; 91 nM in the series with DENV-4 strains H241. The CC50 at 3 days in “in vitro [1]” was greater than 2500 nM. Also, it took 5400 nM to reach half-maximal cytotoxicity in the series on Vero cells (CC50).
For the molecule `COc1cc(NC(C(=O)c2c[nH]c3cc(OC)c(Cl)cc23)c2ccc(F)cc2OC)cc(S(C)(=O)=O)c1` (single isomer, unassigned) [Enantiomer 16A, 1-(5-chloro-6-methoxy-1H-indol-3-yl)-2-(4-fluoro-2-methoxyphenyl)-2-((3-methoxy-5-(methylsulfonyl)phenyl)amino)ethanone], the EC50 was determined as 0.188 nM in the series on DENV-2 strain 16681; 25.4 nM in the series with DENV-3 strain H87; 0.42 nM with DENV-2 16681 strain (listed as 16A*); 3.26 nM in the series with DENV-1 strain TC974#666; 80.1 nM in the series with DENV-4 strains H241. This molecule also returned a CC50 at 3 days in the series “in vitro [1]” of 3170 nM. This molecule also had a CC50 in the series on Vero cells of 3700 nM.
On to `COc1cc(NC(C(=O)c2c[nH]c3ccc(C(F)(F)F)cc23)c2ccc(F)cc2OC)cc(S(C)(=O)=O)c1` (single isomer, unassigned) [Enantiomer 17B, 2-(4-fluoro-2-methoxyphenyl)-2-((3-methoxy-5-(methylsulfonyl)phenyl)amino)-1-(5-(trifluoromethyl)-1H-indol-3-yl)ethanone], for which the 50% effective concentration (EC50) in the series on DENV-2 strain 16681 is 0.0921 nM; with DENV-3 strain H87, 7.28 nM; in the series with DENV-2 16681 strain (listed as 17B*), 0.2 nM; in the series on DENV-1 strain TC974#666, 0.478 nM; with DENV-4 strains H241 it was 21.3 nM. The molecule also registered a CC50 at 3 days in “in vitro [1]” of 1610 nM. In addition, the CC50 in the series on Vero cells was 3600 nM.
Turning to `COc1cc(NC(C(=O)c2c[nH]c3ccc(OC(F)(F)F)cc23)c2ccc(F)cc2OC)cc(S(C)(=O)=O)c1` (single isomer, unassigned) [Enantiomer 18A, 2-(4-fluoro-2-methoxyphenyl)-2-((3-methoxy-5-(methylsulfonyl)phenyl)amino)-1-(5-(trifluoromethoxy)-1H-indol-3-yl)ethanone], the EC50 in the series on DENV-2 strain 16681 was determined as 0.14 nM; with DENV-3 strain H87, 7.54 nM; in the series with DENV-2 16681 strain (listed as 18A*), 0.086 nM; in the series on DENV-1 strain TC974#666, 0.357 nM; in the series with DENV-4 strains H241 it was 18.2 nM. In “in vitro [1]”, this molecule registered a 50% cytotoxic concentration (CC50) at 3 days of 3010 nM. The CC50 in the series on Vero cells was found to be 3100 nM.
